Experimental data taken from patent US12227485B2, “Compounds useful for the treatment of infection with Mannheimia haemolytica or Histophilus somni” (Intervet Inc., priority 2018, dated 2025).
≈ marks a conversion by molar mass, not a printed value.

What was measured:
Mannheimia haemolytica = assay: MIC by broth-microdilution method (CLSI VET01-A4), Mannheimia haemolytica strains; format: cell-based; details: for MIC MH 6357: Mannheimia haemolytica MH 6357 (M7/2), reference strain (cattle infection strain); for MIC MH 6374: Mannheimia haemolytica MH 6374 (ATCC 33396), reference strain; for MIC MH 10720: Mannheimia haemolytica MH 10720 (154); for MIC MH 10720 / MIC MH 12587 / MIC MH 13093: BRD field isolate; for MIC MH 12587: Mannheimia haemolytica MH 12587 (1071), macrolide-resistance: erm+, E+; for MIC MH 13093: Mannheimia haemolytica MH 13093 (XB0472-6014.1)
Protocol: (§1) For example, representative compounds were tested against Mannheimia haemolytica and Pasteurella multocida, using the conventional broth-dilution assay.
(§2) The Minimum inhibitory concentrations (MIC) of compounds according to the invention for a number of veterinary bacterial pathogens were determined by the broth-microdilution method according to CLSI document VET01-A4.
(§3) Microdilution trays containing a doubling dilution series of the test compound were used for the tests. The MIC results were interpreted according to the CLSI documents VET01-S3. The lowest concentration of compound at which no visible growth (i.e. no turbidity) detected by the unaided eye was recorded as the MIC.

Pasteurella multocida = assay: MIC by broth-microdilution method (CLSI VET01-A4), Pasteurella multocida strains; format: cell-based; details: for MIC PM 6267: Pasteurella multocida PM 6267 (P 2225 (L386)), reference strain (mouse infection strain); for MIC PM 6391: Pasteurella multocida PM 6391 (ATCC 43137), reference strain; for MIC PM 10775: Pasteurella multocida PM 10775 (080130003051); for MIC PM 10775 / MIC PM 12080: BRD field isolate; for MIC PM 12080: Pasteurella multocida PM 12080 (IV102277-0093)
Protocol: as §1, §2, §3

| Structure (SMILES) | MIC MH 6357 (Mannheimia haemolytica) [µM] | MIC MH 6374 (Mannheimia haemolytica) [µM] | MIC MH 10720 (Mannheimia haemolytica) [µM] | MIC MH 12587 (Mannheimia haemolytica) [µM] | MIC MH 13093 (Mannheimia haemolytica) [µM] | MIC PM 6267 (Pasteurella multocida) [µM] | MIC PM 6391 (Pasteurella multocida) [µM] | MIC PM 10775 (Pasteurella multocida) [µM] | MIC PM 12080 (Pasteurella multocida) [µM] |
| --- | --- | --- | --- | --- | --- | --- | --- | --- | --- |
| COCCNCc1ccc(C#Cc2ccc3c(NC(C(=O)NO)C(C)(C)N)ncnc3c2)cc1 (racemic) [Compound 18] | 25 (≈ 11.6 µg/mL) | 25 (≈ 11.6 µg/mL) | 6.3 (≈ 2.91 µg/mL) | 50 (≈ 23.1 µg/mL) | 25 (≈ 11.6 µg/mL) | 3.1 (≈ 1.43 µg/mL) | 6.3 (≈ 2.91 µg/mL) | 0.8 (≈ 0.37 µg/mL) | 12.5 (≈ 5.78 µg/mL) |
| C[C@@H](O)[C@H](Nc1ncnc2cc(C#Cc3ccc(CN4CCOCC4)cc3)ccc12)C(=O)NO [Compound 1] | 1.6 (≈ 0.738 µg/mL) | 3.1 (≈ 1.43 µg/mL) | 0.2 (≈ 0.0923 µg/mL) | 3.1 (≈ 1.43 µg/mL) | 3.1 (≈ 1.43 µg/mL) | 1.6 (≈ 0.738 µg/mL) | 0.2 (≈ 0.0923 µg/mL) | ≤0.1 | ≤0.1 |
| C[C@@H](O)[C@H](Nc1ncnc2cc(C#Cc3ccc(CNC4CC4)cc3)ccc12)C(=O)NO [Compound 2] | 0.8 (≈ 0.345 µg/mL) | 1.6 (≈ 0.69 µg/mL) | ≤0.1 | 3.1 (≈ 1.34 µg/mL) | 3.1 (≈ 1.34 µg/mL) | 1.6 (≈ 0.69 µg/mL) | 0.2 (≈ 0.0863 µg/mL) | ≤0.1 | ≤0.1 |
| COCCNCc1ccc(C#Cc2ccc3c(N[C@H](C(=O)NO)[C@@H](C)O)ncnc3c2)cc1 [Compound 3] | 6.3 (≈ 2.83 µg/mL) | 6.3 (≈ 2.83 µg/mL) | 6.3 (≈ 2.83 µg/mL) | 12.5 (≈ 5.62 µg/mL) | 6.3 (≈ 2.83 µg/mL) | 0.2 (≈ 0.0899 µg/mL) | 0.4 (≈ 0.18 µg/mL) | ≤0.1 | 3.1 (≈ 1.39 µg/mL) |
| C=CCNCc1ccc(C#Cc2ccc3c(N[C@H](C(=O)NO)[C@@H](C)O)ncnc3c2)cc1 [Compound 4] | 1.6 (≈ 0.69 µg/mL) | 3.1 (≈ 1.34 µg/mL) | 1.6 (≈ 0.69 µg/mL) | 6.3 (≈ 2.72 µg/mL) | 3.1 (≈ 1.34 µg/mL) | 0.2 (≈ 0.0863 µg/mL) | 0.4 (≈ 0.173 µg/mL) | ≤0.1 | 1.6 (≈ 0.69 µg/mL) |
| C[C@@H](O)[C@H](Nc1ncnc2cc(C#Cc3ccc(CNCc4ccccc4)cc3)ccc12)C(=O)NO [Compound 5] | 0.8 (≈ 0.385 µg/mL) | 0.8 (≈ 0.385 µg/mL) | 0.8 (≈ 0.385 µg/mL) | 3.1 (≈ 1.49 µg/mL) | 1.6 (≈ 0.77 µg/mL) | ≤0.1 | 0.2 (≈ 0.0963 µg/mL) | ≤0.1 | 0.8 (≈ 0.385 µg/mL) |
| C[C@@H](O)[C@H](Nc1ncnc2cc(C#Cc3ccc(CNCC(F)(F)F)cc3)ccc12)C(=O)NO [Compound 6] | 0.8 (≈ 0.379 µg/mL) | 0.8 (≈ 0.379 µg/mL) | 0.4 (≈ 0.189 µg/mL) | 1.6 (≈ 0.758 µg/mL) | 0.8 (≈ 0.379 µg/mL) | ≤0.1 | ≤0.1 | ≤0.1 | 0.4 (≈ 0.189 µg/mL) |
| C[C@@H](O)[C@H](Nc1nsc2cc(C#Cc3ccc(CNC4CC4)cc3)ccc12)C(=O)NO [Compound 10] | 0.2 (≈ 0.0873 µg/mL) | 0.4 (≈ 0.175 µg/mL) | ≤0.1 | 0.8 (≈ 0.349 µg/mL) | 0.4 (≈ 0.175 µg/mL) | ≤0.1 | >100 | ≤0.1 | ≤0.1 |
| C=CCNCc1ccc(C#Cc2ccc3c(N[C@H](C(=O)NO)[C@@H](C)O)nsc3c2)cc1 [Compound 11] | 0.4 (≈ 0.175 µg/mL) | 0.4 (≈ 0.175 µg/mL) | ≤0.1 | 1.6 (≈ 0.698 µg/mL) | 0.8 (≈ 0.349 µg/mL) | ≤0.1 | 0.2 (≈ 0.0873 µg/mL) | ≤0.1 | 0.4 (≈ 0.175 µg/mL) |
| COCCNCc1ccc(C#Cc2ccc3c(N[C@H](C(=O)NO)[C@@H](C)O)nsc3c2)cc1 [Compound 12] | 0.8 (≈ 0.364 µg/mL) | 0.8 (≈ 0.364 µg/mL) | 0.2 (≈ 0.0909 µg/mL) | 3.1 (≈ 1.41 µg/mL) | 1.6 (≈ 0.727 µg/mL) | ≤0.1 | >100 | ≤0.1 | 0.8 (≈ 0.364 µg/mL) |
| C[C@@H](O)[C@H](Nc1nsc2cc(C#Cc3ccc(CN4CCOCC4)cc3)ccc12)C(=O)NO [Compound 13] | 3.1 (≈ 1.45 µg/mL) | 6.3 (≈ 2.94 µg/mL) | 1.6 (≈ 0.747 µg/mL) | 6.3 (≈ 2.94 µg/mL) | 3.1 (≈ 1.45 µg/mL) | ≤0.1 | 100 (≈ 46.7 µg/mL) | ≤0.1 | 1.6 (≈ 0.747 µg/mL) |
| C[C@@H](O)[C@H](Nc1nsc2cc(C#Cc3ccc(CNCc4ccccc4)cc3)ccc12)C(=O)NO [Compound 14] | 0.8 (≈ 0.389 µg/mL) | 0.8 (≈ 0.389 µg/mL) | ≤0.1 | 1.6 (≈ 0.779 µg/mL) | 0.8 (≈ 0.389 µg/mL) | ≤0.1 | 100 (≈ 48.7 µg/mL) | ≤0.1 | 0.2 (≈ 0.0973 µg/mL) |
| C[C@@H](O)[C@H](Nc1nsc2cc(C#Cc3ccc(CNCC(F)(F)F)cc3)ccc12)C(=O)NO [Compound 15] | 1.6 (≈ 0.766 µg/mL) | 1.6 (≈ 0.766 µg/mL) | ≤0.1 | 3.1 (≈ 1.48 µg/mL) | 1.6 (≈ 0.766 µg/mL) | ≤0.1 | >100 | ≤0.1 | 0.4 (≈ 0.191 µg/mL) |
